Patent publication US8431578B2, “Organic compounds” (Novartis AG, priority 2008, dated 2013)

T1: ALK5 T204D (kinase domain of human ALK5, amino acids 200-503) (Homo sapiens, UniProt P36897, T204D)
T1 construct: The kinase domain of human ALK5 (amino acids 200-503); made in house; host or cells: insect cells (baculovirus expression)
T1 sequence (P36897 200-503 T204D): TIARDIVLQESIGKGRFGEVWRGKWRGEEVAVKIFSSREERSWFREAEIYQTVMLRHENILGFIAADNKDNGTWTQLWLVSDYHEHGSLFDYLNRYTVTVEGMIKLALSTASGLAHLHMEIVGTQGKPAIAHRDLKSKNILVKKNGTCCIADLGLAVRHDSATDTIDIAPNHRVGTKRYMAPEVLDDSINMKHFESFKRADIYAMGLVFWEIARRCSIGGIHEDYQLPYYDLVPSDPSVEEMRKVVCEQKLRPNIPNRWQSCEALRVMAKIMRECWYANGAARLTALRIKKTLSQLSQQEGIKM


Key:
[1] = target: T1, ALK5 T204D (kinase domain of human ALK5, amino acids 200-503); assay: ALK5 kinase activity, [33P] phosphate incorporation into casein; assay type: biochemical; settings: casein substrate, 1 μM unlabelled ATP
Protocol: The kinase activity of ALK5 is assessed by measuring radiolabelled phosphate [33P] incorporation in to the generic substrate, casein. The kinase domain of human ALK5 (amino acids 200-503) is fused to an N-terminal histidine tag. The kinase activity of ALK5 is rendered constitutive via point mutation at amino acid 204 (threonine to aspartate modification, ALK5 T204D) and the kinase construct is engineered to be expressed from a baculovirus expression construct in insect cells. The purified, recombinantly-expressed histidine-tagged ALK5 T204D protein is dissolved at 5.4 mg/ml in 50 mM Tris-HCl pH 8.0, 150 mM NaCl, 5 mM DTT. ALK5 T204D is dissolved to 2.5 μg/ml in assay buffer (Assay buffer: 20 mM Tris-HCl pH 7.4, 10 mM MgCl2, 2 mM MnCl2) on the day of use.
Test compounds and reference compounds are dissolved in assay buffer without DTT containing 5% (v/v) DMSO. Stock solutions of test and reference compounds are diluted in assay buffer with DTT (1.25 mM) containing 4.5% (v/v) DMSO. 10 μl of test or reference compound are added to the appropriate wells of 96 well U-bottomed plate. Total enzyme activity is determined by measuring ALK5 T204D activity in the absence of ALK5 kinase inhibitor reference compounds. Non-specific binding (NSB) is determined by measuring the activity of ALK5 T204D in the presence of ALK5 kinase inhibitor reference compounds. 10 μl of dephosphorylated casein stock solution (dephosphorylated casein is dissolved in ddH2O at 20 mg/ml) is added per well (200 μg/well final assay concentration). 20 μl of ALK5 T204D (2.5 μg/ml solution) is added per well (50 ng/well final assay concentration). The plates are left to incubate at room temperature for 10 minutes.
10 μl of ATP mix is added to the well to initiate the reaction (0.66 nM [^33P]ATP/1 μM unlabelled ATP/well final assay concentration). The ATP mix is prepared as follows, unlabelled ATP (3 mM) is dissolved in ddH2O and pH adjusted to 7.4. The stock concentration of [^33P]ATP is 10 μCi/μl. The appropriate volume of [^33P]ATP is added to unlabelled ATP solution such that the final assay concentration per well is 0.1 μCi. Following addition of the ATP mix, the plates are incubated at room temperature for 50 minutes. The kinase reaction is terminated by the addition of 50 μL Stop Buffer (20 mM Tris-HCl pH 7.4, 10 mM EDTA).
75 μl/well from the reaction plate is transferred to a Multiscreen-IP plate (MultiScreen-IP plates are prepared by added 50 μL of 70% (v/v) ethanol per well and incubated for 5 minutes at room temperature. The ethanol is removed by aspiration via a MultiScreen HTS Vaccum Manifold unit (Millipore, Cat no: MSVMHT500). The plates are washed twice by adding 200 μl/well ddH2O). The MultiScreen-IP plate is incubated at room temperature for 30 minutes to allowing binding of casein to the plate. The MultiScreen-IP plates are washed three times by adding 200 μl/well 100 mM phosphoric acid solution and the gasket is carefully removed from the back of the MultiScreen-IP plate and the plate dried in the oven for 30 minutes. The MultiScreen-IP plate is backsealed, 50 μL of Microscint™20 is added, then the plates are topsealed and radiolabelled casein detected and quantified on a TopCount™ plate-reader using the ^33P scintillation protocol.

[2] = system: dimethylnitrosamine induced liver fibrosis; settings: rat, cited from earlier work
[3] = system: bleomycin-induced pulmonary fibrosis; settings: bleomycin-treated rats; cited from earlier work
[4] = dimethylnitrosamine induced liver fibrosis, given therapeutically

Molecule	IC50 [1] [nM]	other results
CC(C)N1CCN(C(=O)c2ccc(-c3cncc(-c4cc(Cl)nc(-c5ccccn5)n4)c3)cc2)CC1 [Example 1, {4-[5-(6-Chloro-2-pyridin-2-yl-pyrimidin-4-yl)-pyridin-3-yl]-phenyl}-(4-isopropyl-piperazin-1-yl)-methanone]	335	
CC(C)N1CCN(C(=O)c2ccc(-c3cncc(-c4ccnc(-c5ccccn5)n4)c3)cc2)CC1 [Example 3, (4-Isopropyl-piperazin-1-yl)-{4-[5-(2-pyridin-2-yl-pyrimidin-4-yl)-pyridin-3-yl]-phenyl}-methanone]	592	
Cc1cccc(-c2nc(OCCc3c[nH]c4ccccc34)cc(-c3cccnc3)n2)n1 [Example 6, 3-{2-[2-(6-Methyl-pyridin-2-yl)-6-pyridin-3-yl-pyrimidin-4-yloxy]-ethyl}-1H-indole]	261	
Cc1cccc(-c2nc(OCc3ccccc3)cc(-c3cncc(-c4ccc(C(=O)N5CCN(C(C)C)CC5)cc4)c3)n2)n1 [Example 8, (4-{5-[6-Benzyloxy-2-(6-methyl-pyridin-2-yl)-pyrimidin-4-yl]-pyridin-3-yl}-phenyl)-(4-isopropyl-piperazin-1-yl)-methanone]	265	
CC(C)N1CCN(C(=O)c2ccc(-c3cncc(-c4cc(OCc5ccccc5)nc(-c5ccccn5)n4)c3)cc2)CC1 [Example 11, {4-[5-(6-Benzyloxy-2-pyridin-2-yl-pyrimidin-4-yl)-pyridin-3-yl]-phenyl}-(4-isopropyl-piperazin-1-yl)-methanone]	24	
c1ccc(-c2cc(-c3cn[nH]c3-c3ccccn3)ccn2)cc1 [GW6604]		inhibition of extracellular matrix deposition [2, 4]: 60%; prevention of the death rate [2, 4]: 40%; side effects ([2]; during the 3 weeks treatment): no obvious side effects
Follistatin: an antagonist of activin signalling (protein, UniProt P19883 30-344, looked up) Follistatin: GNCWLRQAKNGRCQVLYKTELSKEECCSTGRLSTSWTEEDVNDNTLFKWMIFNGGAPNCIPCKETCENVDCGPGKKCRMNKKNKPRCVCAPDCSNITWKGPVCGLDGKTYRNECALLKARCKEQPELEVQYQGRCKKTCRDVFCPGSSTCVVDQTNNAYCVTCNRICPEPASSEQYLCGNDGVTYSSACHLRKATCLLGRSIGLAYEGKCIKAKSCEDIQCTGGKKCLWDFKVGRGRCSLCDELCPDSKSDEPVCASDNATYASECAMKEAACSSGVLLEVKHSGSCNSISEDTEEEEEDEDQDYSFPISSILEW		effect on lung fibrosis [3]: attenuated lung fibrosis
